Where “and” joins values, the source holds several entries; their conditions need not be identical. Equal values may be shown once.
Tested on: 519858-162-T-J1-PDC complex spheroid viability
Experiment: Anticancer human tumor 519858-162-T-J1-PDC patient-derived colon adenocarcinoma cell line growth inhibition [GQUAD]
Settings: for viability, T/C: stronger effect = lower value; for IC50: curve of compound
Excerpt: DNA G-quadruplex Stabilizer Agents in Combinations in Complex Spheroids
A high-throughput screen of multi-cell type tumor spheroids was designed to identify active combinations of DNA G-quadruplex stabilizer agents and targeted small molecules. Complex spheroids include a stromal component modeled by human endothelial cells (HUVEC) and fibroblasts modeled by human mesenchymal stem cells (MSCs). The concentration ranges selected for each drug and investigational agent were based upon clinically achievable concentrations if the clinical Cmax of the agent was known.
Compounds. The drugs and investigational agents: pidnarulex (CX-5461; NSC782164), APTO-253 (NSC789042), BRACO-19 (NSC847499), peposertib (NSC802822), ceralasertib (NSC780249), elimusertib (NSC800525), camonsertib (NSC841442), AZD-1390 (NSC803789), olaparib (NSC753686), talazoparib (NSC767125), ART-558 (NSC835418), sotorasib (NSC818433), MRTX-1133 (NSC836407), SN-38 (NSC673596), topotecan (NSC609699), etoposide (NSC141540), doxorubicin (NSC123127), gemcitabine (NSC613327), 5-fluorouracil (NSC19893), paclitaxel (NSC125973), vemurafenib (NSC761431), panobinostat (NSC761190), R-306465 (JNJ-16241199; NSC773264), adavosertib (NSC754352), TP-3654 (NSC805149), carboplatin (NSC241240), KSQ-4279 (NSC840948), and staurosporine (NSC755774) were obtained from the National Cancer Institute (NCI) Developmental Therapeutics Program Chemical Repository (34). The FDA-approved anticancer drug set is available from the NCI Developmental Therapeutics Program. […] The stock solutions were prepared in dimethyl sulfoxide (DMSO, Sigma-Aldrich, St. Louis, MO, cat. D2650) at 800-fold the tested concentration and stored at -70 degrees C prior to their use. All drugs and investigational agents were tested over a range starting from a high concentration at or near the clinical Cmax and decreasing in half-log increments. If the clinical Cmax for an agent had not been determined, the highest concentration tested was 10 microM.
2.3 Cell Culture. All cells were maintained in an incubator at 37 degrees C and 5% CO2 with 95% humidity. The PDC lines were cultured according to standard operating procedures established by the NCI PDMR. All PDCs were thawed and cultured in Matrigel-coated flasks prepared with a working solution of 1X Ham's F-12 nutrient mix, without supplementation (Invitrogen, cat. 11765054), 100 U/mL penicillin-streptomycin (Invitrogen, cat. 15140122), and 2.5% Matrigel (Corning Inc., cat. 354248) for the first three passages. The 857933-349-R-J2-PDC line was cultured in 6C/Colon 1B media, which includes advanced DMEM/F-12 (Thermo Fisher Scientific, cat. 12634028), 10 mM HEPES (Thermo Fisher Scientific, cat. 15630080), 1X GlutaMAX supplement (Thermo Fisher Scientific, cat. 35050061), 0.1 mg/mL primocin (InvivoGen, cat. ant-pm-2), 10% defined fetal bovine serum, heat inactivated (HyClone Laboratories Inc., cat. SH30070.03HI), 50% L-WRN conditioned media (ATCC, cat. CRL-3276), 1.25 mM N-Acetyl-L-cysteine (Sigma-Aldrich, cat. A9165), 10 mM nicotinamide (Sigma-Aldrich, cat. N0636), 1X B-27 supplement (Thermo Fisher Scientific, cat. 17504044), 1X N-2 supplement (Thermo Fisher Scientific, cat. 17502048), 10 microM Y-27632 dihydrochloride (Tocris Bioscience, cat. 1254), and 50 ng/mL human EGF recombinant protein (Thermo Fisher Scientific, cat. PHG0311). The 485176-168-R4-J1-PDC line was cultured in Panc media, which includes all 6C/Colon 1B media components plus 100 ng/mL human FGF-10 (Thermo Fisher Scientific, cat. 100-26), 500 nM SB-431542 (Selleckchem, cat. S1067), and gastrin (Tocris, cat. 3006).
[…]
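Also: spheroids exposed to compounds for 7 days.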
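For viability, T/C in this document: 100% = DMSO vehicle control viability.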

| IC50 | Compound | viability, T/C (compound 0.0316 µM) | viability, T/C (compound 0.1 µM) | viability, T/C (compound 0.316 µM) | viability, T/C (compound 1 µM) | viability, T/C (compound 3.16 µM) | viability, T/C (compound 10 µM) |
| --- | --- | --- | --- | --- | --- | --- | --- |
| > 10000 nM | CC(C)n1c(=O)n(C)c2cnc3cc(F)c(-c4ccc(OCCCN5CCCCC5)nc4)cc3c21 | 123% and 93.8% | 107% and 102% | 86.9% and 69.8% | 108% and 91.8% | 73.7% and 81.7% | 120% and 93.2% |
| 2460 nM and 1840 nM | CC(C)(O)C1CCC(Nc2ccc3ncc(-c4cccc(C(F)(F)F)c4)n3n2)CC1 (stereo not drawn) | 79% | 119% and 115% | 104% and 106% | 80.3% and 73% | 34.5% and 13.3% | 48.6% and 45.4% |
| 4780 nM and 2430 nM | CC1COCCN1c1cc(-c2ccnn2C)c2ccnc(-c3ccn[nH]3)c2n1 (stereo not drawn) | 103% and 94% | 93.7% and 82.9% | 96.7% and 65% | 117% and 98.3% | 58.8% and 39.7% | 34.3% and 26.3% |
| > 10000 nM | CC(=O)O[C@H]1C(=O)[C@@]2(C)[C@H]([C@H](OC(=O)c3ccccc3)[C@]3(O)C[C@H](OC(=O)[C@H](O)[C@@H](NC(=O)c4ccccc4)c4ccccc4)C(C)=C1C3(C)C)[C@]1(OC(C)=O)CO[C@@H]1C[C@@H]2O | 83.9% and 107% and 108% | 113% and 101% and 80.3% | 93.4% and 80.2% and 97.1% | 87% and 83.3% and 85.1% | 89% and 82.4% and 95.4% | 101% (2×) and 86.7% |

Reference: PubChem BioAssay AID2060507 (Molecular Pharmacology Branch, DTP, NCI, 2025)
